From ChEMBL document CHEMBL1134203, “Discovery of potent and selective succinyl hydroxamate inhibitors of matrix metalloprotease-3 (stromelysin-1)” (Bioorg Med Chem Lett, 2001)

Columns and labels:
[1] = molecular target: Matrix metalloproteinase-9 (Homo sapiens, UniProt P14780)
[2] = molecular target: Matrix metalloproteinase-14 (Homo sapiens, UniProt P50281)

Matrix metalloproteinase-9, sequence (P14780 whole entry): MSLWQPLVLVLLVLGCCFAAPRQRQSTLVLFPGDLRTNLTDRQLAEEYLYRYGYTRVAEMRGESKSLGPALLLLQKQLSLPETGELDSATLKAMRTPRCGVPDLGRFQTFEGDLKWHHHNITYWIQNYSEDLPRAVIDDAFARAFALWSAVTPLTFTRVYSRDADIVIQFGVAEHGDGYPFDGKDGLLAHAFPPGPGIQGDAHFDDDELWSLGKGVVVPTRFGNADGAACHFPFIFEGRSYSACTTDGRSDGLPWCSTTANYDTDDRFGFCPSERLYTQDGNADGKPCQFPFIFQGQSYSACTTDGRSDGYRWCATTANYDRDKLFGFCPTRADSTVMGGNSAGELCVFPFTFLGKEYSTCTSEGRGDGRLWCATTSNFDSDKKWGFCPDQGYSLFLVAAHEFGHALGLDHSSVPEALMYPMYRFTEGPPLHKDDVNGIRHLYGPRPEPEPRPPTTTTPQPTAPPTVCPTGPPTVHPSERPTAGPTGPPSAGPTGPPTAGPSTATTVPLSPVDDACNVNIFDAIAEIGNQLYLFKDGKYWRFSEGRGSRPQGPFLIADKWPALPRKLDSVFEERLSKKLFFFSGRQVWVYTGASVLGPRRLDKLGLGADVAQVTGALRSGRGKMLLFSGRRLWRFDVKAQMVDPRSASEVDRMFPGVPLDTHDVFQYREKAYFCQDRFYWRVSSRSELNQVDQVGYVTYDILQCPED

- IC50 [1]: 840 nM
- IC50 [2]: 1900 nM
SMILES: Cc1cc(CCC[C@H](CC(=O)NO)C(=O)N[C@H](C(=O)N[C@H](C)c2ccccc2)C(C)(C)C)ccc1-c1ccccc1
